Laboratory results taken from US12691084B2, “Pharmaceutical composition for preventing or treating bone diseases” (INDUSTRY FOUNDATION OF CHONNAM NATIONAL UNIVERSITY, priority 2019, dated 2026).

Legend:
CYP3A4 = CYP3A4 (Homo sapiens, UniProt P08684); experiment: CYP450 drug metabolism inhibition, 3A4; assay type: in vitro ADME; settings: for CYP 3A4 remaining activity: criterion remaining activity >50%
Description: (§1) In order to analyze the drug metabolism of PMSA compound, ADME evaluation was requested to the Daegu-Gyeongbuk Advanced Medical industry Promotion Foundation (DGMIF). Metabolic stability of drugs using liver microsomes (microsomal stability), drug metabolism inhibitory ability by five CYP450 enzymes, plasma metabolism (plasma stability), plasma protein binding, and intestinal permeability of drugs (PAMPA, parallel artificial membrane permeability assay) were analyzed. […] Further, it was confirmed that the permeability resistance was excellent (see Table 3 below). On the other hand, for one of PMSA derivatives, that is, 2-(N-(3,5-dimethylphenyl)methylsulfinamido)-N-(2 (phenylthio)phenyl)propanamide (#25-D5), intestinal permeability of the drug (PAMPA) was not measured.

Microsomal stability (M) = assay type: in vitro ADME, mouse; settings: M of H/M; criterion >60%
Description: as §1

CYP2C9 = CYP2C9 (Homo sapiens, UniProt P11712); experiment: CYP450 drug metabolism inhibition, 2C9; assay type: in vitro ADME; settings: criterion remaining activity >50%
Description: as §1

plasma proteins = experiment: Plasma protein binding (PPB); assay type: in vitro ADME, Human; settings: for binding with plasma proteins: conclusion from ADME evaluation
Description: as §1

Plasma stability = assay type: in vitro ADME
Description: as §1

CYP2C19 = CYP2C19 (Homo sapiens, UniProt P33261); experiment: CYP450 drug metabolism inhibition, 2C19; assay type: in vitro ADME; settings: criterion remaining activity >50%
Description: as §1

Microsomal stability (H) = assay type: in vitro ADME, human; settings: H of H/M; criterion >60%
Description: as §1

[1] = tested on: osteoclast-specific genes (CatK, NFATc1, DC-STAMP, OC-STAMP, Acp5); experiment: qRT-PCR of osteoclast-specific gene mRNA expression; assay type: cell-based, mouse; settings: for mRNA expression of DC-STAMP / mRNA expression of OC-STAMP / mRNA expression of cathepsin K (CtsK): day 3 of differentiation, compared to control (Ctrl) without PMSA treatment
Description: Further, in order to confirm the expression degree of the osteoclast-specific gene, an mRNA expression level was measured by RT-PCR in the PMSA compound-treated cells. RNA was isolated from the cells differentiated into osteoclasts using an RNeasy kit (Qiagen, 74106), quantified using a spectrophotometer, followed by synthesizing 0.5 μg of RNA using reverse transcriptase (Takara, RR037 A). The synthesized cDNA was subjected to qRT-PCR with a QuantStudio 3 real-time PCR system (Applied Biosystems) using Power SYBR Green […] (Applied Biosystems).
All qPCR experiments were performed in duplicate, and 18S was used as a control. The ddCT method was used for data analysis.
In order to further confirm the inhibitory effect of PSTP-3,5-Me on osteoclast differentiation, the expression levels genes related to osteoclast production were investigated. mRNA expression of specific markers associated with osteoclast production was measured by RT-PCR in 0 or 6 μM PSTP-3,5-Me-treated cells.
For qRT-PCR, total RNA was extracted from BMMs using a TRIzol reagent (Thermo Fisher Scientific, MA, USA). Complementary DNA was synthesized from the total RNA using a Verso cDNA synthesis kit (Thermo Fisher Scientific, MA, USA). Thereafter, quantitative PCR (qPCR) was performed using the QuantStudio 3 real-time PCR system (Applied Biosystems, CA, USA) together with Power SYBR Green PCR Master Mm (Applied Biosystems, CA, USA).

mouse bone marrow cells = experiment: Bone resorption assay on calcium phosphate coated plate; assay type: cell-based; settings: 6 days; for decrease in bone resorption ability: compared to differentiated osteoclasts (Ctrl) not treated, fluorescence absorbance
Description: Bone resorption ability was confirmed using a bone resorption assay kit (Cosmo Rio, CSR-BRA). 2.5×10^4 mouse bone marrow cells per well were put into a 48-well plate coated with calcium phosphate, followed by treating the cells with PMSA to perform differentiation for 6 days. After 6 days, a fluorescence absorbance was measured with the culture medium to confirm the bone absorption ability. Further, decomposition degree of calcium phosphate was photographed a microscope to confirm the bone resorption ability. […] In FIG. 4, BMMs refer to monocytes that are not differentiated osteoclasts.
Further, the bone resorption ability was confirmed using a bone resorption assay kit (Cosmo Bio, CSR-BRA). 2.5×10^4 mouse bone marrow cells per well were put into a 48-well plate coated with calcium phosphate, and were differentiated for 6 days while being treated with PSTP-3,5-Me. After 6 days, the fluorescence absorbance was measured with the culture medium to confirm the bone absorption ability.

CYP2D6 = CYP2D6 (Homo sapiens, UniProt P10635); experiment: CYP450 drug metabolism inhibition, 2D6; assay type: in vitro ADME; settings: criterion remaining activity >50%
Description: as §1

[2] = 6 μM compared to control (0 μM)

Sequence of CYP3A4 (P08684 whole entry): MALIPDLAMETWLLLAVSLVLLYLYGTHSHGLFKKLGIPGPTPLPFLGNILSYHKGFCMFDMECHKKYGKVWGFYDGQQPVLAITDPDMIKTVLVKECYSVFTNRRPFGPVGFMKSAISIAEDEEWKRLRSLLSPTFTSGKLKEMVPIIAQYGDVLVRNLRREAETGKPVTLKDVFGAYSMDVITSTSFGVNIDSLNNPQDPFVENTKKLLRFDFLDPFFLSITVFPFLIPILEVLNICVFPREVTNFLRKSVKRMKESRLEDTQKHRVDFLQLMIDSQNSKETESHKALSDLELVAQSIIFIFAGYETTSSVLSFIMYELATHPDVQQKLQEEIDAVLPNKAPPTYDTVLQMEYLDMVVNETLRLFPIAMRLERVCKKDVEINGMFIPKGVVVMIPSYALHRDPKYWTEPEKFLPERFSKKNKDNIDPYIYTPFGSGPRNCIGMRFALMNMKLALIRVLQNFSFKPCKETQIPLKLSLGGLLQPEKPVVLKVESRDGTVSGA
Sequence of CYP2C9 (P11712 whole entry): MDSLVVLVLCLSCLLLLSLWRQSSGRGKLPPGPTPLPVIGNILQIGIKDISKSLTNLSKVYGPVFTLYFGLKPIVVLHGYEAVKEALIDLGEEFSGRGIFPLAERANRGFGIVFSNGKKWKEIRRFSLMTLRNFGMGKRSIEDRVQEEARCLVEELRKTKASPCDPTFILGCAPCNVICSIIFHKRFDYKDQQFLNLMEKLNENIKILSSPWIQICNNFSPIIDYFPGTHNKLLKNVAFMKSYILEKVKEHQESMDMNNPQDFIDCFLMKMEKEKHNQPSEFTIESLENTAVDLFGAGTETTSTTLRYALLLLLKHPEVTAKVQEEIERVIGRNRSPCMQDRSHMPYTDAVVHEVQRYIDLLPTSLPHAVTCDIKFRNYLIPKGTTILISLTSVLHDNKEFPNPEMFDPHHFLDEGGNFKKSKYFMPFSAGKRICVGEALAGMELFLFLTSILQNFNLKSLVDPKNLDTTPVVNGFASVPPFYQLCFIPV
Sequence of CYP2D6 (P10635 whole entry): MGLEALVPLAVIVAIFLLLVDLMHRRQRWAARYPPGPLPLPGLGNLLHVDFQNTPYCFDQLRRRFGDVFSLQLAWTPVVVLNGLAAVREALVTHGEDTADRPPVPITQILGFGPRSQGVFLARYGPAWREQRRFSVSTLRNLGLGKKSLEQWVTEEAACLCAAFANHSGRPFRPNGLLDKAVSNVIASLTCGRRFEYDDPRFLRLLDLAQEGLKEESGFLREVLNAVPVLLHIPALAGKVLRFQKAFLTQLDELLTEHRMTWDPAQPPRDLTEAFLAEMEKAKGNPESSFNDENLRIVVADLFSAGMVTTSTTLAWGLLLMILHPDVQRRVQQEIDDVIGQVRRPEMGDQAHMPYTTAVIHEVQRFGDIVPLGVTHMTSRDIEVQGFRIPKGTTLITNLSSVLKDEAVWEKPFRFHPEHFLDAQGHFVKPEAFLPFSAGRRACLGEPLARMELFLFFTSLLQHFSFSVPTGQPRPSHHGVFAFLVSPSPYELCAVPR
Sequence of CYP2C19 (P33261 whole entry): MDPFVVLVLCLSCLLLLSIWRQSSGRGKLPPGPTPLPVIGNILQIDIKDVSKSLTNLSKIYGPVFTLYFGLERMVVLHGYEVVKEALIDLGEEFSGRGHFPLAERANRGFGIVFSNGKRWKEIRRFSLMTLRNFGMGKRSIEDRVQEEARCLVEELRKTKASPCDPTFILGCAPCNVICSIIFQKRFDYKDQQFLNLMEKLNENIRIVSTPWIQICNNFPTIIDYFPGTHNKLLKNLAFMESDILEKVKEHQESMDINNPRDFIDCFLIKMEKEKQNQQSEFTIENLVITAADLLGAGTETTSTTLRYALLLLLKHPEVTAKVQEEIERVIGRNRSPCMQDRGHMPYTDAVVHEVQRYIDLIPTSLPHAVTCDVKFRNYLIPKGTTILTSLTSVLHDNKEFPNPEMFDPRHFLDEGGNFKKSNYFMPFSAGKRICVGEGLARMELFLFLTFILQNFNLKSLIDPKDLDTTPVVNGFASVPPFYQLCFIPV

## CC(=O)c1cccc(N(CC(=O)Nc2ccccc2Sc2ccccc2)S(C)(=O)=O)c1 [#25, 2-(N-(3-acetylphenyl)methylsulfonamido)-N-(2-(phenylthio)phenyl)acetamide]
CYP3A4
  CYP 3A4 remaining activity: 53.3%
Microsomal stability (M)
  Microsomal stability (>60%) M: 8.0%
CYP2C9
  CYP 2C9 remaining activity: 63.7%
Plasma proteins
  PPB Human (%, bound): 98.4 %, bound
  binding with plasma proteins: good
Plasma stability
  Plasma S Human 30 min (% Remaining): 87.1 % Remaining
  Plasma S Human 120 min (% Remaining): 97.3 % Remaining
CYP2C19
  CYP 2C19 remaining activity: 6.2%
Microsomal stability (H)
  Microsomal stability (>60%) H: 8.7%
[1]
  mRNA expression of DC-STAMP: decrease
  mRNA expression of OC-STAMP: decrease
  mRNA expression of cathepsin K (CtsK): decrease
Mouse bone marrow cells
  decrease in bone resorption ability: 16%
CYP2D6
  CYP 2D6 remaining activity: 80.4%

## COc1ccc(Cl)cc1N(CC(=O)Nc1ccccc1Sc1ccccc1)S(C)(=O)=O [#25-D12, 2-(N-(5-chloro-2-methoxyphenyl)methylsulfonamido)-N-(2-(phenylthio)phenyl)acetamide]
CYP3A4
  CYP 3A4 remaining activity: 26%
Microsomal stability (M)
  Microsomal stability (>60%) M: 21.7%
CYP2C9
  CYP 2C9 remaining activity: 59.8%
Plasma proteins
  PPB Human (%, bound): 99.8 %, bound
  binding with plasma proteins: good
Plasma stability
  Plasma S Human 30 min (% Remaining): 98.3 % Remaining
  Plasma S Human 120 min (% Remaining): 97.8 % Remaining
CYP2C19
  CYP 2C19 remaining activity: 6.3%
Microsomal stability (H)
  Microsomal stability (>60%) H: 13.9%
[1]
  mRNA expression of DC-STAMP: decrease
  mRNA expression of OC-STAMP: decrease
  mRNA expression of cathepsin K (CtsK): decrease
Mouse bone marrow cells
  decrease in bone resorption ability: 12.5%
CYP2D6
  CYP 2D6 remaining activity: 85.5%

## Cc1cc(C)cc(N([C@@H](C)C(=O)Nc2ccccc2Sc2ccccc2)S(C)(=O)=O)c1 [#25-D5, N^2-(3,5-dimethylphenyl)-N^2-(methylsulfonyl)-N-[2-(phenylthio)phenyl]alanineamide]
CYP3A4; compared with other derivatives
  utility as a drug such as influence on activity of CYP3A4: not higher than other derivatives
CYP3A4
  CYP 3A4 remaining activity: 13.4%
Microsomal stability (M)
  Microsomal stability (>60%) M: 14.7%
CYP2C9
  CYP 2C9 remaining activity: 52.4%
Plasma proteins
  PPB Human (%, bound): 99.8 %, bound
Plasma stability
  Plasma S Human 30 min (% Remaining): 100/100 % Remaining
  Plasma S Human 120 min (% Remaining): 100/100 % Remaining
CYP2C19
  CYP 2C19 remaining activity: 21.7%
Microsomal stability (H)
  Microsomal stability (>60%) H: 10.9%
[1]; [2]
  Acp5 expression level: slightly decreased
  CatK expression degree: significantly decreased
  DC-STAMP expression level: decreased on day 1
  NFATc1 expression degree: significantly decreased
  OC-STAMP expression level: decreased on day 1
Mouse bone marrow cells
  bone resorption region (optical microscope): not largely shown
Mouse bone marrow cells; RANKL, 0, 3 or 10 μM
  bone resorption ability (fluorescence intensity): significantly decreased in a dose-dependent manner
CYP2D6
  CYP 2D6 remaining activity: 87.3%
